From PMC11019538, “Biophysics-Guided Lead Discovery of HBV Capsid Assembly Modifiers” (ACS Infectious Diseases, 2024)
Where two headings read alike, the source gives them in different places.

Legend:
[1] = MTT cytotoxicity, HepG2 cells; format: cell-based, human; conditions: human
In short: (§1)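 Cell viability after compound exposure was measured by the colorimetric MTT tetrazolium-reduction assay using a commercial non-radioactive cell proliferation kit.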

[2] = MTT cytotoxicity, PBM cells; format: cell-based, human; conditions: human
In short: as §1

[3] = MTT cytotoxicity, Vero cells; format: cell-based, African green monkey; conditions: African green monkey
In short: as §1

[4] = MTT cytotoxicity, CEM cells; format: cell-based, human; conditions: human
In short: as §1

Cp149 = target: T1, Cp149 (Hepatitis B virus genotype D subtype adw, UniProt P03147); test: Tryptophan fluorescence titration; format: binding; conditions: for tryptophan fluorescence quenching: 20 μM Cp149, compound up to 100 μM
T1 construct: The N-terminal domain of Cp (Cp149) is sufficient for forming regular capsids; made in house; host or cells: E. coli BL21(DE3)
T1 sequence (P03147 1-149): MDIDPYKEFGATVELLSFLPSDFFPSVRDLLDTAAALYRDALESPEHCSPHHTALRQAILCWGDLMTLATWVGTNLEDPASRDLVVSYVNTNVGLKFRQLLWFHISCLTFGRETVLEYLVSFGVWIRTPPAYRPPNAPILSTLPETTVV
Description: Each of the compounds was titrated into 100 μL of the protein solution to final concentrations of 0, 5, 10, 20, 50, and 100 μM in a clear bottom 96-well plate. […] Tryptophan fluorescence levels were measured by exciting the samples at 285 nm and measuring the emission at 340 nm with the Varioskan Flash (Thermo Fisher) plate reader. […] Fluorescence quenching was calculated by taking the difference of net fluorescence levels of each concentration and of the 0 μM sample. All the samples were run in triplicate, and the results were averaged. The dissociation constants (KD) were fitted by the one-site-specific binding model of GraphPad.[45]

Cp149 capsid assembly = target: T2, Cp149 capsid assembly (Hepatitis B virus genotype D subtype adw, UniProt P03147); test: Transmission electron microscopy of assembled Cp149 products; format: biochemical; conditions: for % abnormal capsids, Trial 1 / % abnormal capsids, Trial 2 / effect on capsid morphology (TEM): 20 μM Cp149, 40 μM compound; for % abnormal capsids, Trial 1 / % abnormal capsids, Trial 2: 500 mM NaCl; for % abnormal capsids, Average: average of two trials
T2 construct: The N-terminal domain of Cp (Cp149) is sufficient for forming regular capsids; made in house; host or cells: E. coli BL21(DE3)
T2 sequence (P03147 1-149): as above
Description: The assembled samples of Cp149 were prepared as described in the Size Exclusion Chromatography section. Eight μL of each sample was added onto the 300 mesh Lacey Formvar carbon–copper grids (Ted Pella, Inc.) and allowed to sit for 1.5 min. The grid was then rinsed in 500 mL of deionized water for 10 s twice to rinse off the extra buffer on the grid. After drying, the sample was stained with 8 μL of 2% uranyl acetate for 1 min. After removal and drying of the uranyl acetate solution, the sample was imaged with a Hitachi HT7700 electron microscope at an accelerating voltage of 120 kV, at the IMat Materials Characterization Facility of Georgia Institute of Technology. The images underwent processing using ImageJ software. Initially, to minimize noise, a Gaussian blur filter was applied. These images were then converted into an 8 bit binary format for edge detection. ImageJ identified particles ranging in size from 800 to 2000 pixels. An example of a processed image can be seen in Figure S14. The circularity of each particle was calculated using the formula circularity = 4π × area × perimeter^–2. […] A total of four images, each containing a minimum of 100 capsids, were analyzed to determine the proportion of the abnormal capsids. The entire experiment was duplicated, and the outcomes from both sets were then averaged.

[5] = system: HBV DNA replication in HepAD38 cells; test: HBV DNA replication inhibition assay in HepAD38 cells (7 days, PCR of supernatant DNA); format: cell-based, hepatitis B virus; conditions: HepAD38 cells
In short: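 HepAD38 cells treated with compounds in dose–response […] for 7 days. On day 7, total DNA purified from supernatant and HBV DNA quantified by PCR; samples run in duplicate.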

[6] = system: human peripheral blood mononuclear (PBM) cells; test: MTT cytotoxicity, PBM cells; format: cell-based
In short: as §1

[7] = system: T lymphoblast CEM-CCRF (CEM) cells; test: MTT cytotoxicity, CEM cells; format: cell-based, human
In short: as §1

[8] = system: human liver carcinoma (HepG2) cells; test: MTT cytotoxicity, HepG2 cells; format: cell-based; conditions: HepG2 cells
In short: as §1

[9] = system: African green monkey kidney (Vero) cells; test: MTT cytotoxicity, Vero cells; format: cell-based; conditions: Vero cells
In short: as §1

[10] = peripheral blood mononuclear (PBM) cells
[11] = T lymphoblast CEM-CCRF (CEM) cells
[12] = Hepatitis B virus, 10 μM, trial 1, read-out: % HBV DNA Inh. at 10 μM, trial 1
[13] = Hepatitis B virus, 10 μM, trial 2, read-out: % HBV DNA Inh. at 10 μM, trial 2
[14] = Hepatitis B virus, 10 µM, trial 3, read-out: % HBV DNA Inh. at 10 µM, trial 3
[15] = Hepatitis B virus, 10 µM, trial 4, read-out: % HBV DNA Inh. at 10 µM, trial 4
[16] = Hepatitis B virus, 10 μM, read-out: % inhibition in at least one of the trials
[17] = Hepatitis B virus, trial 1, read-out: EC50, trial 1
[18] = Hepatitis B virus, trial 2, read-out: EC50, trial 2
[19] = Hepatitis B virus, trial 3, read-out: EC50, trial 3
[20] = Hepatitis B virus, trial 4, read-out: EC50, trial 4
[21] = trial 1, read-out: EC50, trial 1
[22] = trial 2, read-out: EC50, trial 2

| Compound | CC50 ([1]; HepG2 cells (liver carcinoma)) [µM] | CC50 [2, 10] [µM] | tryptophan fluorescence quenching (Cp149) | % abnormal capsids, Trial 1 (Cp149 capsid assembly) [%] | % abnormal capsids, Trial 2 (Cp149 capsid assembly) [%] | CC50 ([3]; Vero cells (kidney)) [µM] | CC50 [4, 11] [µM] | inhibition at 10 µM [5, 12] [%] | inhibition at 10 µM [5, 13] [%] | inhibition at 10 µM [5, 14] [%] | inhibition at 10 µM [5, 15] [%] | inhibition at 10 µM [5, 16] [%] | EC50 [5, 17] [µM] | EC50 [5, 18] [µM] | EC50 [5, 19] [µM] | EC50 [5, 20] [µM] | CC50 [8] [µM] | CC50 [6] [µM] | CC50 [9] [µM] | CC50 [7] [µM] | also measured |
| --- | --- | --- | --- | --- | --- | --- | --- | --- | --- | --- | --- | --- | --- | --- | --- | --- | --- | --- | --- | --- | --- |
| C[C@@H]1C[C@@H]([C@H](O)CC2CC(=O)NC(=O)C2)C(=O)[C@@H](C)C1 [Cycloheximide, reference compound] |  |  |  |  |  |  |  |  |  |  |  |  |  |  |  |  |  |  |  |  | CC50 ([1]; HepG2 cells): 0.3 µM; CC50 [2]: 0.9 µM; CC50 ([3]; Vero cells): 0.2 µM; CC50 [4]: 0.2 µM |
| O=C(OCc1ccc(-c2cnc3ccccc3n2)cc1)c1cccs1 [GT-32] | 59 | 85 | moderate fluorescence quenching | 76 | 85 | 44 | 52 | 48 | < 1 | < 1 | < 1 | > 50 | ≥ 10 | > 10 | > 10 | > 100 |  |  |  |  | Kd (Cp149; 20 μM Cp149, single-site fit, read-out: dissociation constant (KD), estimated): 124 µM; Kd (Cp149; one site specific binding model, Table S7, read-out: KD): 124 µM |
| CCOC(=O)c1cc(-c2cc(C(=O)OCC)c3ccccc3n2)nc2ccccc12 [GT-33] | 86 | > 100 | reproducible but modest fluorescence quenching | 31 | 26 | 76 | > 100 | 60 | 37 | < 1 | < 1 | > 50 | < 10 | > 10 | > 10 | > 100 |  |  |  |  | percent cytotoxicity (cell growth inhibition) at 100 µM [6]: 5.6%; effect on capsid morphology (TEM) (Cp149 capsid assembly): induced misdirected products; % abnormal capsids, Average (Cp149 capsid assembly): 29%; % cytotoxicity at 100 µM (MTT), CEM cells [7]: 32% |
| Cc1nc(-c2c(-c3ccccc3)ncn2Cc2cccc3[nH]ccc23)c[nH]1 [GT-40] | > 100 | > 100 | No fluorescence quenching was observed | 8 | 11 | > 100 | 77 | 55 | 50 | < 1 | < 1 | > 50 | < 10 | 10 | > 10 | > 100 |  |  |  |  | percent cytotoxicity (MTT) at 100 µM, HepG2 [8]: 30%; percent cytotoxicity (cell growth inhibition) at 100 µM [6]: 19%; KD (Cp149; one site specific binding model, Table S7): No binding; effect on capsid morphology (TEM) (Cp149 capsid assembly): no apparent effect; % abnormal capsids, Average (Cp149 capsid assembly): 10%; % cytotoxicity (MTT) at 100 µM [9]: 39% |
| Cc1ccc(-c2nc(CNC(=O)C3CCOC3)[nH]c2-c2ccccn2)cc1 (stereo not shown) [GT-43] |  |  |  |  |  |  |  |  |  |  |  |  |  |  |  |  | 29 | 42 | 19 | 30 | % HBV DNA Inh. at 10 μM, trial 1 ([5]; 10 μM, trial 1): 4.7%; % HBV DNA Inh. at 10 μM, trial 2 ([5]; 10 μM, trial 2): 4.7%; EC50 [5, 21]: > 10 µM; EC50 [5, 22]: > 10 µM |
| CC(=O)N1CCC(NCc2nc(-c3ccc(C)cc3)c(-c3ccccn3)[nH]2)CC1 [GT-44] |  |  |  |  |  |  |  |  |  |  |  |  |  |  |  |  | 70 | 64 | > 100 | 63 | % cytotoxicity (MTT) at 100 µM [9]: 54%; % HBV DNA Inh. at 10 μM, trial 1 ([5]; 10 μM, trial 1): 37%; % HBV DNA Inh. at 10 μM, trial 2 ([5]; 10 μM, trial 2): 37%; EC50 [5, 21]: > 10 µM; EC50 [5, 22]: > 10 µM |
| NCCCC(=O)NCc1nc(-c2cccc(F)c2)c(-c2ccccn2)[nH]1 [GT-45] | > 100 | > 100 | reproducible but modest fluorescence quenching | 40 | 35 | 66 | > 100 | 50 | 49 | < 1 | < 1 | > 50 | ≥ 10 | ≥ 10 | > 10 | > 100 |  |  |  |  | percent cytotoxicity (MTT) at 100 µM, HepG2 [8]: 41%; percent cytotoxicity (cell growth inhibition) at 100 µM [6]: 41%; effect on capsid morphology (TEM) (Cp149 capsid assembly): induced misdirected products; % abnormal capsids, Average (Cp149 capsid assembly): 38%; % cytotoxicity at 100 µM (MTT), CEM cells [7]: 36% |
| Oc1c(C(Nc2ccccc2)c2ccccc2)ccc2cccnc12 (stereo not shown) [GT-48] |  |  |  |  |  |  |  |  |  |  |  |  |  |  |  |  | 34 | 20 | 4.5 | 3.4 | % HBV DNA Inh. at 10 μM, trial 1 ([5]; 10 μM, trial 1): < 1%; % HBV DNA Inh. at 10 μM, trial 2 ([5]; 10 μM, trial 2): < 1%; EC50 [5, 21]: > 10 µM; EC50 [5, 22]: > 10 µM |
| CCN(CC)CCCNc1cc(OC)c(Nc2ccccc2)c2cccnc12 [GT-49] |  |  |  |  |  |  |  |  |  |  |  |  |  |  |  |  | 17 | 27 | 16 | 9.4 | % HBV DNA Inh. at 10 μM, trial 1 ([5]; 10 μM, trial 1): 45%; % HBV DNA Inh. at 10 μM, trial 2 ([5]; 10 μM, trial 2): 45%; EC50 [5, 21]: > 10 µM; EC50 [5, 22]: > 10 µM |
